Data taken from article PMC3926802 (Molecular pharmaceutics, 2012).
Values joined by “and” are separate entries in the source; they are usually repeats but may differ in a detail not shown here. Equal entries are not always repeated. Where two headings read alike, the source gives them in different places.

Assays:
[1] = In vitro transport across SCRPE; details: for Cumulative % transport compared with GFX, SCRPE / Fold improvement in permeability compared to GFX, SCRPE: 200 μM donor; for Cumulative % transport compared with GFX, SCRPE: no inhibitor; for Fold improvement in permeability compared to GFX, SCRPE: pH 7.4, 37 °C; for GFX levels formed in the prodrug group, SCRPE: during in vitro transport study
[2] = Thermodynamic solubility in water for injection; assay type: physicochemical; details: for Solubility: water for injection (pH 6.4), 37 °C, 6 hours
Buffer = assay type: physicochemical; details: buffer (pH 7.4), 37°C, 24 hours
Log D = details: n-octanol and PBS buffer (pH 7.4), 37 °C; mean ± SD, n = 3
[3] = In vitro transport across conjunctiva; details: for Cumulative % transport compared with GFX, conjunctiva / Fold improvement in permeability compared to GFX, conjunctiva: 200 μM donor; for Cumulative % transport compared with GFX, conjunctiva: no inhibitor; for Fold improvement in permeability compared to GFX, conjunctiva: pH 7.4, 37 °C; for GFX levels formed in the prodrug group, conjunctiva: during in vitro transport study
[4] = In vitro transport across cornea; details: for Cumulative % transport compared with GFX, cornea / Fold improvement in permeability compared to GFX, cornea: 200 μM donor; for Cumulative % transport compared with GFX, cornea: no inhibitor; for Fold improvement in permeability compared to GFX, cornea: pH 7.4, 37 °C; for GFX levels formed in the prodrug group, cornea: during in vitro transport study
[5] = In vivo tissue distribution and bioconversion after topical eye drop; set-up: species or system pigmented rabbits
[6] = cited from earlier work
[7] = cited from earlier work; remark: listed apart in the source
[8] = α-methyl-DL-tryptophan, ATB (0, +) inhibitor, versus no inhibitor
[9] = 1 hour after topical dose of DMAP-GFX
[10] = MPP+ (500 μM), OCT inhibitor, versus no inhibitor
[11] = absence of OCT inhibitor MPP+, printed as compared to GFX
[12] = topical eye drop dosing in rabbits

Cumulative % transport compared with GFX, SCRPE [1]	Fold improvement in permeability compared to GFX, SCRPE [1]	GFX levels formed in the prodrug group, SCRPE [1]	Solubility [2] [mM]	Solubility ([2]; mean ± SD, n = 3) [mg/mL]	GFX formed from prodrug (Buffer) [%]	Log D (pH 7.4) (Log D)	Cumulative % transport compared with GFX, conjunctiva [3]	Fold improvement in permeability compared to GFX, conjunctiva [3]	GFX levels formed in the prodrug group, conjunctiva [3]	Cumulative % transport compared with GFX, cornea [4]	Fold improvement in permeability compared to GFX, cornea [4]	GFX levels formed in the prodrug group, cornea [4]	SMILES	other results
did not show any improvement	did not show any improvement	below the detection limits	4	2.16 ± 0.3	8.97	1.04 ± 0.02	did not show any improvement	did not show any improvement	below the detection limits	did not show any improvement	did not show any improvement	below the detection limits	COc1c(N2CCN(C(=O)[C@@H](N)CC(C)C)C(C)C2)c(F)cc2c(=O)c(C(=O)O)cn(C3CC3)c12 (some centres unmarked) [APM-GFX]	Transport in the presence of α-methyl-DL-tryptophan, SCRPE [1, 8]: did not show any change; Transport in the presence of α-methyl-DL-tryptophan, conjunctiva [3, 8]: did not show any change; Transport in the presence of α-methyl-DL-tryptophan, cornea [4, 8]: did not show any change
significantly higher than GFX	1.9 fold and 1.95 fold	below the detection limits	72	33.26 ± 3.0	9.51	0.05 ± 0.01	significantly higher than GFX	1.8 fold and 1.85 fold	below the detection limits	significantly higher than GFX	1.4 fold and 1.42 fold	below the detection limits	COc1c(N2CCNC(C)C2)c(F)cc2c(=O)c(C(=O)NCCCN(C)C)cn(C3CC3)c12 (racemic) [DMAP-GFX, (±)-1-cyclopropyl-N-(3-(dimethylamino)propyl)-6-fluoro-8-methoxy-7-(3-methylpiperazin-1-yl)-4-oxo-1,4-dihydroquinoline-3-carboxamide]	Formed drug (GFX) levels as % of the total drug, CRPE [5, 9]: 13%; Formed drug (GFX) levels as % of the total drug, conjunctiva [5, 9]: 70%; Formed drug (GFX) levels as % of the total drug, cornea [5, 9]: 8%; Formed drug (GFX) levels as % of the total drug, iris-ciliary body [5, 9]: 24%; Formed drug (GFX) levels as % of the total drug, retina [5, 9]: 55%; Formed drug (GFX) levels as % of the total drug, sclera [5, 9]: 29%; Formed drug (GFX) levels as % of the total drug, vitreous humor [5, 9]: 60%; Drug levels in the remaining tissues, prodrug versus drug group ([5]; 1 hour after topical eye drop, tissues other than vitreous humor and CRPE): not significantly different; Cumulative % transport in the presence of MPP+, SCRPE [1, 10]: significantly lower; Permeability in the absence of inhibitor, fold higher, SCRPE [1, 11]: 2.06 fold; Fold higher solubility than CP-GFX ([2]; compared to CP-GFX (6.0 mM)): 12 fold; Fold greater solubility than GFX ([2]; compared to GFX): 12.8 fold; Cumulative % transport in the presence of MPP+, conjunctiva [3, 10]: significantly lower; Cumulative % transport in the presence of MPP+, cornea [4, 10]: significantly lower; Permeability in the absence of inhibitor, fold higher, cornea [4, 11]: 1.42 fold
													COc1c(N2CCNC(C)C2)c(F)cc2c(=O)c(C(=O)O)cn(C3CC3)c12 (centres unmarked) [GFX, Gatifloxacin sesquihydrate]	pKa, carboxylic acid (reported) [6]: 5.94; solubility at 6 h ([2]; water for injection, pH 6.4): 2600 µg/mL and 7000 µM; Tmax in vitreous humor ([7]; single eye drop, pigmented rabbits): 60 min; Tmax, conjunctiva [7, 12]: 4.98 min; Tmax, plasma [7, 12]: 4.98 min; Tmax, tear fluid [7, 12]: 4.98 min
				3.01 ± 0.2	8.63								COc1c(N2CCNC(C)C2)c(F)cc2c(=O)c(C(=O)NCCCC(=O)O)cn(C3CC3)c12 (racemic) [CP-GFX, (±)-4-(1-cyclopropyl-6-fluoro-8-methoxy-7-(3-methylpiperazin-1-yl)-4-oxo-1,4-dihydroquinoline-3-carboxamido)butanoic acid]	Log D (pH 7.4): 0.11 ± 0.01
